Assay results taken from PMC9814091, “The making of a potent L-lactate transport inhibitor” (Communications Chemistry, 2021).
Read-outs that look alike come from different tables or passages of the source.

How the values were obtained:
SfMCT [1] = molecular target: T1, SfMCT (Syntrophobacter fumaroxidans, UniProt A0LNN5); assay: cell-based; type: cell-based; conditions: for times more potent than BA (starting compound): ratio of Ki values versus BA
T1 construct: expressed in transfected cells; host or cells: E. coli JA202 (MC4100 glcA::cat lldP::kan) transformed with pEXT20-SfMCT-3C-10His
T1 sequence (A0LNN5 1-412): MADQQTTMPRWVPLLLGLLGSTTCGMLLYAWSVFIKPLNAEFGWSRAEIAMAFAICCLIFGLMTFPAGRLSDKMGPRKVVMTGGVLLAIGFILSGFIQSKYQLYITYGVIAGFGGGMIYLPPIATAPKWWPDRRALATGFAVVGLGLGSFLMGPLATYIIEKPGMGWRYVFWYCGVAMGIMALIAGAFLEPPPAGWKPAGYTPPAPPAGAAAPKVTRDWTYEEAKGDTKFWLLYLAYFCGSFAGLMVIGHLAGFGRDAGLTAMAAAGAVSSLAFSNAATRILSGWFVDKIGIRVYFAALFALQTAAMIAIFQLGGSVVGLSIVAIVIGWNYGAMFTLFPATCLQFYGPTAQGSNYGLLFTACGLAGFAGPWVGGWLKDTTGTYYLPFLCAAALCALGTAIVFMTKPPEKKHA
From the text: The previously characterized ligand binding site provides space to accommodate molecules that are larger than TSA. […] Only molecules containing one carboxylate-group were considered (i.e., monocarboxylates) as R280 (TM8) is the only positively-charged residue in the ligand binding site region. […] The binding site also contains hydrophobic and aromatic residues, which can be involved in hydrophobic and π-stacking interactions with bound molecules. Therefore, the focus of the screen was set on aromatic monocarboxylates, which are summarized in Supplementary Fig. 1. To evaluate the inhibitory effect of the selected molecules, an inhibition assay was set up where the transport of [^14C]L-lactate through SfMCT was measured in the absence and presence of different inhibitors at decreasing concentrations. In a first step, the inhibitory effects of BA, as well as hydroxylated and methylated BA derivatives on L-lactate transport, were investigated at a concentration of 500 µM (Fig. 1A, red).
(§1) Uptake experiments were done as described previously[6],[40]. Overnight precultures of E. coli JA202 (MC4100 glcA::cat lldP::kan)[42], which were transformed with a plasmid carrying SfMCT (pEXT20-SfMCT-3C-10His), were diluted 1:200 into LB-medium supplemented with 100 μg/ml ampicillin. Cultures were grown at 37 °C and 180 r.p.m. in an incubator shaker (Multitron, Infors HT). At OD600 ~0.5, isopropyl-β-D-thiogalactopyranoside was added to the culture to a final concentration of 250 µM to induce SfMCT expression. In the case of E. coli MC4100 (DSM 6574, German Collection of Microorganisms and Cell Cultures), an overnight preculture was diluted 1:200 into LB-medium supplemented with 50 μg/ml streptomycin and grown at 37 °C and 180 r.p.m. in an incubator shaker (Multitron, Infors HT). Bacteria were harvested 4 h post-induction (E. coli JA202) or 6 h post-inoculation (E. coli MC4100) (5200 × g, 10 min, room temperature). The supernatant was discarded and the bacteria were gently resuspended in uptake buffer (20 mM Bis-Tris propane-HCl (pH 6.7), 250 mM KCl). The density of the bacteria suspension was adjusted to OD600 12. Transport experiments were done in a reaction volume of 50 µl, which consisted of 20 µl cell-suspension (2.4 × 10^8 bacteria), 10 µl substrate master mix (67 µM sodium L-lactate spiked with [14C(U)] L-lactic acid sodium salt ([^14C]L-lactate, American Radiolabeled Chemicals) to a specific activity of 0.15 Ci/mmol) and 20 µl monocarboxylate inhibitor solution. […] All monocarboxylate inhibitors were purchased from Merck (i.e., SigmaAldrich) with the exception of 6-methyl-salicylate (6MSA) that was purchased from Fluorochem. Uptake experiments were performed in 2 ml reaction tubes (Eppendorf) at 30 °C under agitation (1000 r.p.m., Thermomixer compact, Eppendorf). After 30 min, reactions were stopped by adding 900 μl stop buffer (20 mM HEPES-NaOH (pH 7.5), 150 mM NaCl) followed by centrifugation (21,000 × g, 4 min, room temperature). Pelleted bacteria were then washed two times with 900 μl stop buffer to remove free radioligand. Finally, bacteria were lysed using 50 μl 5% (w/v) sodium dodecylsulfate and transferred into a 96-well plate (Optiplate, PerkinElmer). 150 µl scintillation cocktail (MicroScint 40, PerkinElmer) were added to each well before measuring each well for 2 min with a scintillation counter (TopCount NXT, PerkinElmer). For data analysis Prism6 (GraphPad Software) was used.

SfMCT [2] = molecular target: T1, SfMCT; parameters: method as in PMID 31201333; conditions: cited from earlier work
SfMCT Y331F mutant = molecular target: T2, SfMCT Y331F mutant (Syntrophobacter fumaroxidans, UniProt A0LNN5, Y331F); type: cell-based; conditions: 25 µM 1OHN2C; 10 µM N2C, 3PP, 2M3PP
T2 construct: expressed in transfected cells; host or cells: E. coli JA202 (inferred: same uptake protocol as wild type)
T2 sequence (A0LNN5 whole entry Y331F): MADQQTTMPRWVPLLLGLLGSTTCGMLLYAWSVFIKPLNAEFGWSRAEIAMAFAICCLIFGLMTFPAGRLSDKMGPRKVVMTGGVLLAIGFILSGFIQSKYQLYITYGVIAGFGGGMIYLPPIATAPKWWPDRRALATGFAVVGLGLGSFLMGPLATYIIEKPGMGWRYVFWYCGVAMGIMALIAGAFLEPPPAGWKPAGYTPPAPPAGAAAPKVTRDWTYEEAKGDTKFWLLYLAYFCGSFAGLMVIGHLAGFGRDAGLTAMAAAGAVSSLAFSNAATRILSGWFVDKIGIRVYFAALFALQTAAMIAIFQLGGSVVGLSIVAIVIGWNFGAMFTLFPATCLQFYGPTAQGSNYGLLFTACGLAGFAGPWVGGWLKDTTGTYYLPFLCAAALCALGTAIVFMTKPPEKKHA
Experimental: as §1, with “Finally, bacteria were lysed using 50 μl 5% (w/v) sodium dodecylsulfate and transferred into a 96-well plate (Optiplate, PerkinElmer). 150 µl scintillation cocktail (MicroScint 40, PerkinElmer) were added to each well before measuring each well for 2 min with a scintillation counter (TopCount NXT, PerkinElmer). For data analysis Prism6 (GraphPad Software) was used.” left out

[3] = test system: E. coli L-lactate permeases (i.e., LldP and GlcA); assay: [14C]L-lactate transport into E. coli MC4100 (test for a protonophoric effect); type: cell-based; conditions: 100 µM compound
SfMCT [4] = molecular target: T1, SfMCT; assay: Transport assay with radiolabeled monocarboxylates as potential SfMCT substrates; type: cell-based; conditions: 40 µM 14C-labeled compound, 0.1 µCi per reaction
[5] = inhibitor 100 µM, methylated SA derivatives and 3OH4MBA (Fig. 1A, blue)
[6] = [14C]L-lactate uptake, SfMCT-expressing E. coli JA202, pH 6.7, 30 °C, 30 min, read-out: Ki (inhibition of L-lactate transport)
[7] = inhibitor 25 µM, naphthoate derivatives (Fig. 1A, orange)
[8] = inhibitor 10 µM, hydroxylated and methylated 3PP derivatives (Fig. 1A, magenta)
[9] = inhibitor 500 µM, BA and hydroxylated and methylated BA derivatives (Fig. 1A, red)

With `Cc1ccc(C(=O)O)cc1O` [3OH4MBA, 3-hydroxy-4-methyl-benzoate] the “inhibitory effect on L-lactate transport in the screen” value (shortened to “inhibitory effect … in the screen”) (SfMCT [1]; [5]) was “strongly reduced inhibition of L-lactate transport”.

For `O=C(O)c1ccccc1S` [TSA, thiosalicylate], the “transport of the compound by SfMCT” value (SfMCT [2]) is listed as “non-transported”.

For `O=C(O)c1ccc2ccccc2c1` [N2C, 2-naphthoate], the “reduction of L-lactate transport inhibition by the Y331F mutation versus wild type” value (SfMCT Y331F mutant) was ~ 2 fold, the Ki (SfMCT [1]; [6]) was 2.4 µM and the “inhibitory effect … in the screen” value (SfMCT [1]; [7]) was “strongest reduction of L-lactate transport among the tested naphthoate derivatives”. For the same compound, the “effect on [14C]L-lactate transport activity of E. coli MC4100” value (shortened to “effect … of E. coli MC4100”) [3] was “no significant reduction”.

In the case of `Cc1ccc(C(=O)O)c(O)c1` [4MSA, 4-methyl-salicylate], the Ki (SfMCT [1]) is reported as 24.4 µM and the “inhibitory effect … in the screen” value (SfMCT [1]; [5]) is reported as “strongest reduction of L-lactate transport among the methylated SA-derivatives”.

In the case of `O=C(O)/C=C/c1ccccc1` [CA, trans-cinnamate], the Ki (SfMCT [1]) is reported as 2.5 µM.

For `O=C(O)CCc1cccc(O)c1` [3OH3PP, 3-(3-hydroxyphenyl)-propionate], the “inhibitory effect … in the screen” value (SfMCT [1]; [8]) was “strongest L-lactate transport reduction among the tested hydroxylated derivatives”.

For `Cc1ccccc1CCC(=O)O` [2M3PP, 3-(2-methylphenyl)-propionate], the “reduction of L-lactate transport inhibition by the Y331F mutation versus wild type” value (SfMCT Y331F mutant) was ~ 2 fold, the Ki (SfMCT [1]; [6]) was 0.469 µM and the “inhibitory effect … in the screen” value (SfMCT [1]; [8]) was “strongest inhibitory effect on L-lactate transport among the tested methylated derivatives”. For the same compound, the “times more potent than BA (starting compound)” value (from here on “times more potent than BA”) (SfMCT [1]) was about 1000 times and the “effect … of E. coli MC4100” value [3] was “no significant reduction”.

With `N#CC(C#N)=NNc1cccc(Cl)c1` [CCCP, carbonyl cyanide 3-chlorophenylhydrazone, reference compound] the “effect … of E. coli MC4100” value [3] was “reduced the uptake activity almost”.

For `O=C(O)c1ccc2ccccc2c1O` [1OHN2C, 1-hydroxy-2-naphthoate], the “reduction of L-lactate transport inhibition by the Y331F mutation versus wild type” value (SfMCT Y331F mutant) was ~ 2 fold, the Ki (SfMCT [1]) was 16.2 µM and the “inhibitory effect … in the screen” value (SfMCT [1]; [7]) was “strongest reduction of L-lactate transport among the tested naphthoate derivatives”. For the same compound, the “effect … of E. coli MC4100” value [3] was “no significant reduction”.

In the case of `Cc1ccc(C(=O)O)cc1` [4MBA, 4-methyl-benzoate], the Ki (SfMCT [1]) is reported as 13.4 µM, the “inhibitory effect … in the screen” value (SfMCT [1]; [9]) is reported as “strongest reduction of L-lactate transport activity” and the “times more potent than BA” value (SfMCT [1]) is reported as ~ 30 times.

With `O=C(O)c1ccccc1O` [SA, salicylate] the “transport of the radiolabeled compound by SfMCT” value (SfMCT [4]) was “does not transport”, the Ki (SfMCT [1]) was 362 µM and the “inhibitory effect … in the screen” value (SfMCT [1]; [9]) was “strongest decrease in L-lactate transport activity”.

With `O=C(O)CCc1ccccc1` [3PP, 3-phenylpropionate] the “transport of the radiolabeled compound by SfMCT” value (SfMCT [4]) was “does not transport”, the Ki (SfMCT [1]) was 0.812 µM and the “inhibitory effect on L-lactate transport in the molecular ruler experiment” value (SfMCT [1]; BA, PA, 3PP and 4PB compared (Fig. 1A, black)) was “most potent inhibitor”. The “times more potent than BA” value (SfMCT [1]) was ~ 530 times and the “effect … of E. coli MC4100” value [3] was “no significant reduction”.

In the case of `O=C(O)c1ccccc1` [BA, benzoate], the Ki (SfMCT [1]) is reported as 431 µM.
